Tested on: serum uric acid
Experiment: Phase 2 clinical trial (NCT03934099): serum uric acid concentration in gout patients
Assay type: in vivo, human
Details: for average maximum degree of reduction in serum uric acid: FIG. 3; for patients with serum uric acid concentration <6 mg/dL: gout patients, with colchicine 0.6 mg; for average serum uric acid concentration: within 2 weeks after starting administration
Method: A phase 2 clinical trial was conducted to analyze the dosage, TEAEs, and the like when the compound of Formula 1 (1-(3-cyano-1-isopropyl-indol-5-yl)pyrazol-4-carboxylic acid; compound of Example 1) is administered to a gout patient group.
• 1. Written informed consent (signed and dated) provided voluntarily prior to the start of the study. • 2. Male or female aged from 18 to 75 • 3. History or experience of hyperuricemia and gout in accordance with the criteria of the American College of Rheumatology. • 4. Self-reported history of 2 or more gout flare within 12 months prior to screening visit (Visit 1). • 5. Serum uric acid (sUA) levels at Visit 1 of 6.0 mg/dL or more in subjects who were receiving urate lower therapy (ULT) with allopurinol, febuxostat, probenecid, or lesinurad; and sUA levels at Visit 1 of 8.0 mg/dL or more and 12.0 mg/dL or less in subjects who had no history of receiving the ULT or were not receiving the ULT at visit 1. • 6. sUA levels of 8.0 mg/dL or more and 12.0 mg/dL or less at Visit 3. • 7. Body mass index of 42 kg/m^2 or less at screening visit (Visit 1). • 8. Estimated glomerular filtration rate (eGFR) of 60 mL/min/1.73 m^2 or more at screening visit (Visit 1). • 9. Subjects of childbearing potential with a negative pregnancy test result at screening visit (Visit 1). Subjects (female subjects of childbearing potential and male subjects with partners of childbearing potential) consented to use adequate methods of contraception to avoid pregnancy during the study period. • 10. Able to understand the study procedure and relevant risk, and willing to comply with the visit/protocol schedule.
• 1. Presence of secondary hyperuricemia caused by myeloproliferative disorder, organ transplantation, or the like. • 2. Experience of any active acute gout flare within 3 weeks prior to screening visit (Visit 1). • 3. Aspartate aminotransferase or alanine aminotransferase level exceeds 2 times upper limit of normal (ULN) at screening visit (Visit 1). • 4. Creatine kinase level exceeds 2.5 times ULN at screening visit (Visit 1). • 5. Presence of previous hypersensitivity to colchicine. • 6. Patients who have ever prescribed pegloticase within 3 months prior to screening visit (Visit 1). • 7. If a stable dose of drugs (losartan, fibrate, thiazide diuretics, loop diuretics, and acetylsalicylic acid) known to affect sUA levels has not been administered during the past 6 weeks prior to screening visit (Visit 1), acetylsalicylic acid is not allowed to use 325 mg/day or more. • 8. Patients who have ever received systemic corticosteroids for 10 or more consecutive days within 1 month prior to screening visit (Visit 1). • 9. Presence of need or potential availability of systemic immunosuppressive drugs or immunomodulatory therapies (e.g., azathioprine, 6-mercaptopurine, and cyclosporine) • 10. Patients who have received high or moderate doses of cytochrome P450 3A4 inhibitors or P-glycoprotein inhibitors within 14 days prior to screening visit (Visit 1). • 11. History of xanthinuria. • 12. History of rheumatoid arthritis. • 13. Presence of active peptic ulcer disease requiring treatment. • 14. Presence of unstable angina, New York Heart Association class III or IV heart failure, myocardial infarction, stroke, deep vein thrombosis, percutaneous coronary intervention (with or without stent), or coronary artery bypass graft within the past 12 months prior to screening visit (Visit 1); current administration of anticoagulants; or the presence of clinically significant electrocardiogram abnormalities in the investigator's opinion at screening visit (Visit 1). • 15. Presence of uncontrolled hypertension (systolic blood pressure>160 mmHg or diastolic blood pressure>95 mmHg) at screening visit (Visit 1). • 16. History of myositis/myopathy, rhabdomyolysis, Stevens-Johnson syndrome, or toxic epidermal necrolysis. • 17. […]

[1] = 200 mg/day oral, 12 weeks, listed as 1-(3-cyano-1-isopropyl-indol-5-yl)pyrazol-4-carboxylic acid
[2] = mild renal function impairment (eGFR 60-<90), 50 mg, 12 weeks
[3] = mild renal function impairment (eGFR 60-<90), 100 mg, 12 weeks
[4] = mild renal function impairment (eGFR 60-<90), 200 mg, 12 weeks
[5] = moderate renal function impairment (eGFR 30-<60), at each dose (50, 100, 200 mg), 12 weeks
[6] = normal renal function (eGFR>=90), 50 mg, 12 weeks
[7] = normal renal function (eGFR>=90), 100 mg, 12 weeks
[8] = normal renal function (eGFR>=90), 200 mg, 12 weeks

CC(C)n1cc(C#N)c2cc(-n3cc(C(=O)O)cn3)ccc21 [Example 1, 1-(3-cyano-1-isopropyl-indol-5-yl)pyrazol-4-carboxylic acid]
average maximum degree of reduction in serum uric acid (50 mg): 46.7%
patients with serum uric acid concentration <4 mg/dL (50 mg/day oral, 12 weeks): 18% (6/34 people)
patients with serum uric acid concentration <6 mg/dL (50 mg/day oral, 12 weeks): 59%
average serum uric acid concentration (50 mg/day): 5.5 mg/dL
average maximum degree of reduction in serum uric acid (100 mg): 50.6%
patients with serum uric acid concentration <4 mg/dL (100 mg/day oral, 12 weeks): 29% (11/38 people)
patients with serum uric acid concentration <6 mg/dL (100 mg/day oral, 12 weeks): 63%
average serum uric acid concentration (100 mg/day): 4.9 mg/dL
average maximum degree of reduction in serum uric acid (200 mg): 66.8%
patients with serum uric acid concentration <4 mg/dL (200 mg/day oral, 12 weeks): 54% (20/37 people)
patients with serum uric acid concentration <6 mg/dL (200 mg/day oral, 12 weeks): 78%
patients with serum uric acid concentration <4 mg/dL [1]: 54%
patients with serum uric acid concentration <5 mg/dL [1]: 62%
average serum uric acid concentration (200 mg/day): 3.8 mg/dL
serum uric acid concentration kept within the normal range during the dosing period (doses of 50 mg, 100 mg and 200 mg, from week 2, FIG. 2): < 6.0 mg/dL
patients adjusted to serum uric acid <5.0 mg/dL [2]: 33%
patients adjusted to serum uric acid <6.0 mg/dL [2]: 53%
patients adjusted to serum uric acid <5.0 mg/dL [3]: 44%
patients adjusted to serum uric acid <6.0 mg/dL [3]: 67%
patients adjusted to serum uric acid <5.0 mg/dL [4]: 55%
patients adjusted to serum uric acid <6.0 mg/dL [4]: 77%
patients adjusted to serum uric acid <5.0 mg/dL [5]: ≥ 50%
patients adjusted to serum uric acid <6.0 mg/dL [5]: ≥ 50%
patients adjusted to serum uric acid <5.0 mg/dL [6]: 53%
patients adjusted to serum uric acid <6.0 mg/dL [6]: 59%
patients adjusted to serum uric acid <5.0 mg/dL [7]: 43%
patients adjusted to serum uric acid <6.0 mg/dL [7]: 57%
patients adjusted to serum uric acid <5.0 mg/dL [8]: 71%
patients adjusted to serum uric acid <6.0 mg/dL [8]: 79%

From patent publication US20240415814A1, “PHARMACEUTICAL COMPOSITION COMPRISING 1-(3-CYANO-1-ISOPROPYL-INDOL-5-YL)PYRAZOLE-4-CARBOXYLIC ACID” (LG CHEM, LTD., priority 2021, published 2024)
